Here are results for 64 compounds from article PMC6792352, “Limited Chemical Structural Diversity Found to Modulate Thyroid Hormone Receptor in the Tox21 Chemical Library” (Environmental Health Perspectives, 2019).

This data set is described as follows: in vitro. Conditions: rat, gh3-tre-luc cells.

Structures can show the parent of a compound that is named as a salt.

The term CC50 denotes the concentration at which the toxic effect on the cells reaches its halfway point. Under “AC50 (uM) modified / 1000”, `CCO[Si](CCCS)(OCC)OCC` [3-(Triethoxysilyl)propane-1-thiol] had a CC50 at 24 h above 90 µM.
`O=C(O)CCCO` [Sodium 4-hydroxybutanoate] had a CC50 at 24 h (AC50 (uM) modified / 1000, Tox21_110001=Tox21_112871, viability, 1 nM T3 present, 24 h) above 100 µM.
For `Clc1cc(Cl)c(-c2cc(Cl)c(Cl)cc2Cl)cc1Cl` [2,2',4,4',5,5'-Hexachlorobiphenyl], the 50% cytotoxic concentration (CC50) at 24 h (AC50 (uM) modified / 1000, Tox21_110001=Tox21_202470, viability, 1 nM T3 present, 24 h) is above 40 µM.
As to `CC(C)CCCCCCOC(=O)C1CCCCC1C(=O)OCCCCCCC(C)C` (stereo not drawn) [Diisononyl cyclohexane-1,2-dicarboxylate], for the setting “AC50 (uM) modified / 1000”, the cytotoxic concentration (CC50) at 24 h is above 90 µM.
Same read-out and setting: for `CN(C)[C@@H]1C(=O)C(C(=O)NCN2CCCC2)=C(O)[C@@]2(O)C(=O)C3=C(O)c4c(O)cccc4[C@@](C)(O)C3C[C@@H]12` (stereo partly drawn) [Rolitetracycline hydrochloride] the value was above 50 µM; for `O=C1c2cccc(O)c2C(=O)c2c(O)cc(CO)cc21` [Aloe-emodin], above 90 µM.
In turn, `CCCCOCCOCCSC#N` [2-(2-Butoxyethoxy)ethyl thiocyanate] displayed a CC50 at 24 h (AC50 (uM) modified / 1000) above 100 µM.
`O=[N+]([O-])c1c(Cl)c(Cl)cc(Cl)c1Cl` [2,3,5,6-Tetrachloronitrobenzene] had a 50% cytotoxic concentration (CC50) at 24 h (AC50 (uM) modified / 1000, Tox21_110001=Tox21_400013, viability, 1 nM T3 present, 24 h) above 90 µM.
For `O=CC=C(c1ccccc1)c1ccccc1` [3,3-Diphenylacrylaldehyde], where the note is “AC50 (uM) modified / 1000”, it took 42.2 µM to reach half-maximal cytotoxicity (CC50 at 24 h).
As for `CCNC(=O)[C@@H]1CCCN1C(=O)[C@H](CCCNC(=N)N)NC(=O)[C@H](CC(C)C)NC(=O)[C@@H](CC(C)C)NC(=O)[C@H](Cc1ccc(O)cc1)NC(=O)[C@H](CO)NC(=O)[C@H](Cc1c[nH]c2ccccc12)NC(=O)[C@H](Cc1c[nH]cn1)NC(=O)[C@@H]1CCC(=O)N1` [Leuprolide acetate salt], the CC50 at 24 h (AC50 (uM) modified / 1000) is above 50 µM.
As for `Cc1cc(C)c(C(=O)O)c(C)c1` [2,4,6-Trimethylbenzoic acid], the CC50 at 24 h (AC50 (uM) modified / 1000) was above 90 µM.
For the compound `CC(=O)NNc1ccccc1` [1-Acetyl-2-phenylhydrazine], the CC50 at 24 h (AC50 (uM) modified / 1000, Tox21_110001=Tox21_200069, viability, 1 nM T3 present, 24 h) was 7.15 µM.
`O=C(O)CCc1nc(-c2ccccc2)c(-c2ccccc2)o1` [Oxaprozin]: the half-maximal cytotoxic concentration (CC50) at 24 h (AC50 (uM) modified / 1000) was above 50 µM.
As to `CCc1ccc(O)c(C(C)(C)C)c1` [2-tert-Butyl-4-ethylphenol], the CC50 at 24 h (AC50 (uM) modified / 1000) is 62.1 µM.
`OC1CCCc2ccccc21` (stereo not drawn) [1,2,3,4-Tetrahydronaphthalen-1-ol] registered a half-maximal cytotoxic concentration (CC50) at 24 h (AC50 (uM) modified / 1000) above 90 µM.
`C=C[Si](OC(C)=O)(OC(C)=O)OC(C)=O` [Ethenylsilanetriyl triacetate] returned a CC50 at 24 h (AC50 (uM) modified / 1000) above 90 µM.
Turning to `Brc1ccc(Oc2cc(Br)c(Br)cc2Br)c(Br)c1` [2,2',4,4',5-Pentabromodiphenyl ether], the CC50 at 24 h (AC50 (uM) modified / 1000, Tox21_110001=Tox21_200156, viability, 1 nM T3 present, 24 h) was above 90 µM.
`CCCCCCOc1ccc(O)cc1` [4-(Hexyloxy)phenol] displayed a 50% cytotoxic concentration (CC50) at 24 h (AC50 (uM) modified / 1000) of 25.3 µM. That is a double-digit micromolar value.
For the setting “AC50 (uM) modified / 1000”, `CCN(CC)c1ccc2c(C)cc(=O)oc2c1` [7-Diethylamino-4-methylcoumarin] gave a CC50 at 24 h above 90 µM.
As to `CO[SiH](C)C` [Methylpolysilicone], under “AC50 (uM) modified / 1000”, the CC50 at 24 h was above 100 µM.
For `CC(C)(C)C(=O)C(Cl)Cl` [Dichloropinacolin], where the note is “AC50 (uM) modified / 1000”, the half-maximal cytotoxic concentration (CC50) at 24 h is above 90 µM.
Still for that read-out and setting: with `CC(C)(CO)[C@@H](O)C(=O)NCCC(=O)O` [Calcium pantothenate] the figure was above 50 µM.
On the same count and under the same terms, for `N[C@@H](Cc1c[nH]cn1)C(=O)O` [L-Histidine hydrochloride] the value was above 50 µM; for `C=CC(=O)OCCCl` [2-Chloroethyl acrylate], above 90 µM.
In the case of `COC1CC(=C(c2cccs2)c2cccs2)C[N+](C)(C)C1` (stereo not drawn) [Timepidium bromide], the CC50 at 24 h (AC50 (uM) modified / 1000, Tox21_110001=Tox21_112659, viability, 1 nM T3 present, 24 h) is above 50 µM.
The compound `O=CC=O` [Glyoxal] gave a 50% cytotoxic concentration (CC50) at 24 h (AC50 (uM) modified / 1000) above 90 µM.
For `CC1(C)[C@H](C(=O)O[C@H](C#N)c2cccc(Oc3ccccc3)c2)[C@@H]1C=C(Cl)Cl` [alpha-Cypermethrin], for the setting “AC50 (uM) modified / 1000”, the half-maximal cytotoxic concentration (CC50) at 24 h was above 90 µM.
As to `COP(N)(=O)SC` (stereo not drawn) [Methamidophos], the CC50 at 24 h (AC50 (uM) modified / 1000, Tox21_110001=Tox21_202250, viability, 1 nM T3 present, 24 h) is above 90 µM.
As for `CCOCC(=O)O` [Ethoxyacetic acid], the CC50 at 24 h (AC50 (uM) modified / 1000) is above 90 µM.
Regarding `c1ccc(-c2ccc(C(c3ccccc3)n3ccnc3)cc2)cc1` (stereo not drawn) [Bifonazole], where the note is “AC50 (uM) modified / 1000”, the CC50 at 24 h came to 45.2 µM.
In turn, `CCCCOC(=O)C(C)Oc1ccc(Oc2ccc(C(F)(F)F)cn2)cc1` (stereo not drawn) [Fluazifop-butyl] showed a 50% cytotoxic concentration (CC50) at 24 h (AC50 (uM) modified / 1000) above 90 µM.
For the compound `CC(C)CCCCCCN` [Isononanamine], the cytotoxic concentration (CC50) at 24 h (AC50 (uM) modified / 1000) was above 90 µM.
As for `CCCCCC(=O)CC` [3-Octanone], the CC50 at 24 h (AC50 (uM) modified / 1000) was above 90 µM.
In the case of `CO/C=C(/C(=O)OC)c1ccccc1COc1cccc(C(F)(F)F)n1` [Picoxystrobin], the CC50 at 24 h (AC50 (uM) modified / 1000) is above 90 µM.
`Brc1ccc(Br)c(Br)c1` [1,2,4-Tribromobenzene] displayed a CC50 at 24 h (AC50 (uM) modified / 1000) above 90 µM.
The same measure, in the same setting: for `O=C(C(Cl)Cl)N1CCOC12CCCCC2` [MON-4660] the value was 62.3 µM; for `CO[C@H]1C[C@H](O[C@@H]2/C(C)=C/C[C@@H]3C[C@@H](C[C@]4(CC[C@H](C)[C@@H](C5CCCCC5)O4)O3)OC(=O)[C@@H]3C=C(C)/C(=N/O)[C@H]4OC/C(=C\C=C\[C@@H]2C)[C@]43O)O[C@@H](C)[C@@H]1O` [Selamectin], 33.2 µM; for `COC(=O)[C@@H](N)CCCNC(=N)N[N+](=O)[O-]` [L-Nitroarginine methyl ester], above 50 µM.
On to `S=P(N1CC1)(N1CC1)N1CC1` [Thiotepa], for which the 50% cytotoxic concentration (CC50) at 24 h (AC50 (uM) modified / 1000) was above 100 µM.
For `O=C(O)c1cc(C(=O)O)c(C(=O)O)cc1C(=O)O` [Pyromellitic acid], where the note is “AC50 (uM) modified / 1000”, the half-maximal cytotoxic concentration (CC50) at 24 h is above 90 µM.
Same read-out and setting: with `O=C(O)C(Cl)Cl` [Dichloroacetic acid] the figure was above 90 µM; with `Cc1ccnc(N)c1` [4-Methylpyridin-2-amine], above 90 µM.
For `CCC(COC(=O)CCS)(COC(=O)CCS)COC(=O)CCS` [2,2-Bis{[(3-sulfanylpropanoyl)oxy]methyl}butyl 3-sulfanylpropanoate], the CC50 at 24 h (AC50 (uM) modified / 1000) was above 90 µM.
Regarding `C#CCN1C(=O)COc2cc(F)c(N3C(=O)C4=C(CCCC4)C3=O)cc21` [Flumioxazin], the half-maximal cytotoxic concentration (CC50) at 24 h (AC50 (uM) modified / 1000) is above 90 µM.
Where the note is “AC50 (uM) modified / 1000”, `C=C(C)C(=O)OCCOCCOCCOCCOC(=O)C(=C)C` [Tetraethyleneglycol dimethacrylate] came in with a half-maximal cytotoxic concentration (CC50) at 24 h above 90 µM.
On the same count and under the same terms, for `CC(C)(C)c1csc(-c2cc3cc(OCc4ccccc4CC(=O)O)ccc3o2)n1` [FR150011] the value was 79.7 µM; for `CC(C)Cc1ccc([C@@H](C)C(=O)NS(C)(=O)=O)cc1` [Reparixin], above 50 µM.
`CCCCON=O` [N-Butylnitrite] returned a CC50 at 24 h (AC50 (uM) modified / 1000, Tox21_110001=Tox21_202927, viability, 1 nM T3 present, 24 h) above 90 µM.
With `COC(=O)c1ccccc1S(=O)(=O)NC(=O)N(C)c1nc(C)nc(OC)n1` [Tribenuron-methyl], the CC50 at 24 h (AC50 (uM) modified / 1000) is above 100 µM.
Consider `CNC(=O)CSP(=S)(OC)OC` [Dimethoate], for which, under “AC50 (uM) modified / 1000, Tox21_110001=Tox21_202246, viability, 1 nM T3 present, 24 h”, the CC50 at 24 h is above 90 µM.
The compound `CC(CN1CC(=O)NC(=O)C1)N1CC(=O)NC(=O)C1` (stereo not drawn) [ICRF-159] came in with a CC50 at 24 h (AC50 (uM) modified / 1000) above 90 µM.
For the compound `CC(C)C[C@H]1C(=O)N2CCC[C@H]2[C@]2(O)O[C@](NC(=O)[C@@H]3C[C@@H]4c5cccc6[nH]cc(c56)C[C@H]4N(C)C3)(C(C)C)C(=O)N12` [Dihydroergocriptine], the CC50 at 24 h (AC50 (uM) modified / 1000, Tox21_110001=Tox21_113078, viability, 1 nM T3 present, 24 h) came out at 39.2 µM.
Under “AC50 (uM) modified / 1000”, `CCCCCCCC(=O)OC` [Methyl octanoate] registered a CC50 at 24 h above 90 µM.
In the case of `COc1cc(Cl)c(OC)cc1Cl` [Chloroneb], the cytotoxic concentration (CC50) at 24 h (AC50 (uM) modified / 1000, Tox21_110001=Tox21_300739, viability, 1 nM T3 present, 24 h) is above 90 µM.
As to `COC(=O)N(OC)c1ccccc1COc1ccn(-c2ccc(Cl)cc2)n1` [Pyraclostrobin], under “AC50 (uM) modified / 1000”, the CC50 at 24 h amounted to 59.8 µM.
Compound `C[C@]12CCC(=O)C[C@@H]1CC[C@@H]1[C@@H]2CC[C@]2(C)[C@@H](O)CC[C@@H]12` [5alpha-Dihydrotestosterone] had a cytotoxic concentration (CC50) at 24 h (AC50 (uM) modified / 1000, Tox21_110001=Tox21_111056, viability, 1 nM T3 present, 24 h) above 50 µM; a cytotoxic concentration (CC50) at 24 h (AC50 (uM) modified / 1000, Tox21_110001=Tox21_200987, viability, 1 nM T3 present, 24 h) above 90 µM; a CC50 at 24 h (AC50 (uM) modified / 1000, Tox21_110001=Tox21_303655, viability, 1 nM T3 present, 24 h) above 60 µM.
`CCCCOc1ccc(CC(=O)NO)cc1` [Bufexamac] had a CC50 at 24 h (AC50 (uM) modified / 1000) above 20 µM.
For `CC(C)OC(=O)Nc1ccccc1` [Propham], the CC50 at 24 h (AC50 (uM) modified / 1000, Tox21_110001=Tox21_201664, viability, 1 nM T3 present, 24 h) is above 90 µM.
Consider `COC(=O)C(c1ccccc1)C1CCCCN1` (stereo not drawn) [Methylphenidate hydrochloride], for which the CC50 at 24 h (AC50 (uM) modified / 1000) was above 90 µM.
Turning to `CCOC(=O)c1ccc(C2CCC(NC[C@H](O)COc3ccc(O)c(NS(C)(=O)=O)c3)CC2)cc1` (stereo partly drawn) [SAR 150640], it took 34.8 µM to reach half-maximal cytotoxicity (AC50 (uM) modified / 1000) (CC50 at 24 h).
With `C=C[C@H]1C[N@@]2CC[C@H]1C[C@@H]2[C@@H](O)c1ccnc2ccccc12` [Cinchonine], the CC50 at 24 h (AC50 (uM) modified / 1000) is above 50 µM.
For `CC(COc1ccc(Oc2ccccc2)cc1)Oc1ccccn1` (stereo not drawn) [Pyriproxyfen], the CC50 at 24 h (AC50 (uM) modified / 1000) is above 90 µM.
In the case of `CN1CCCN=C1COC(=O)C(O)(c1ccccc1)C1CCCCC1` (stereo not drawn) [Oxyphencyclimine hydrochloride], under “AC50 (uM) modified / 1000”, the half-maximal cytotoxic concentration (CC50) at 24 h is above 50 µM.
`CCN(CCO)c1cccc(C)c1` [2-(N-Ethyl-m-toluidino)ethanol] had a CC50 at 24 h (AC50 (uM) modified / 1000) above 90 µM.
